Reference: ChEMBL document CHEMBL4354805, “Discovery of MK-8719, a Potent O-GlcNAcase Inhibitor as a Potential Treatment for Tauopathies” (J Med Chem, 2019)

Experiments:
[1] = AUCN in Wistar Han rat at 10 mg/kg, po; format: ADME, organism-based; details: in vivo
[2] = Volume of distribution at steady state in Wistar Han rat at 2 mg/kg, iv or 10 mg/kg, po; format: ADME, organism-based; details: in vivo, read-out: Vdss
[3] = Stability in dog hepatocytes assessed as parent compound remaining at 10 uM incubated for 120 mins; format: ADME, cell-based, Canis lupus familiaris, Hepatocyte; details: read-out: Stability
Rattus norvegicus = assay: Elevation of O-protein in rat brain at 3 mg/kg, po measured after 8 hrs relative to control; format: functional
[4] = AUC (0 to 24 hrs) in rat assessed as change in histomorphology at 1000 mg/kg, po administered for 7 days and measured on day 8; format: ADME, organism-based; design: time < 24 hr, dose 1000 mg/kg, route oral; details: in vivo
[5] = Volume of distribution at steady state in rhesus monkey at 1 mg/kg, iv or 3 mg/kg, po; format: ADME, organism-based, Macaca mulatta; details: in vivo, read-out: Vdss
[6] = Half life in rhesus monkey at 1 mg/kg, iv; format: ADME, organism-based, Macaca mulatta; details: in vivo
[7] = Ratio of drug level in human blood to plasma; format: ADME, cell-free; details: whole blood
[8] = Clearance in Beagle dog at 1 mg/kg, iv; format: ADME, organism-based, Canis lupus familiaris; details: in vivo
[9] = Fraction unbound in Wistar Han rat plasma at 2.5 uM by equilibrium dialysis; format: ADME, cell-free
Cav1.2 = Cav1.2 (Homo sapiens, UniProt Q13936); assay: Inhibition of Cav1.2 (unknown origin) at 30 uM
[10] = Ratio of drug uptake in rat brain to plasma at 3 mg/kg, po measured after 24 hrs; format: ADME, organism-based; details: read-out: BPR
[11] = Protein binding in dog plasma; format: ADME, cell-free, Canis lupus familiaris; details: read-out: PPB
[12] = Protein binding in monkey plasma; format: ADME, cell-free, Macaca mulatta; details: rhesus monkey, read-out: PPB
[13] = Cmax in rat assessed as change in histomorphology at 1000 mg/kg, po administered for 7 days and measured on day 8; format: ADME, organism-based; design: dose 1000 mg/kg, route oral; details: in vivo
[14] = Cmax in telemetered rat at 380 mg/kg, po; format: ADME, organism-based; design: dose 380 mg/kg, route oral; details: in vivo
[15] = AUCN in Beagle dog at 3 mg/kg, po; format: ADME, organism-based, Canis lupus familiaris; details: in vivo
[16] = Fraction unbound in Beagle dog plasma at 1 uM by equilibrium dialysis; format: ADME, cell-free, Canis lupus familiaris
[17] = Protein binding in rat plasma; format: ADME, cell-free; details: read-out: PPB
IKr (KCNH2) = IKr (KCNH2) (Homo sapiens, UniProt Q12809); assay: Inhibition of IKr (unknown origin) at 30 uM
[18] = Half life in Wistar Han rat at 2 mg/kg, iv; format: ADME, organism-based; details: in vivo
[19] = Half life in Beagle dog at 1 mg/kg, iv; format: ADME, organism-based, Canis lupus familiaris; details: in vivo
[20] = AUC (0 to 24 hrs) in rat brain at 10 mg/kg, po measured upto 24 hrs; format: ADME, organism-based; design: dose 10 mg/kg, time < 24 hr, route oral; details: in vivo
[21] = Cmax in telemetered dog at 380 mg/kg, po; format: ADME, organism-based, Canis lupus familiaris; design: dose 380 mg/kg, route oral; details: in vivo
Nav1.5 = Nav1.5 (Homo sapiens, UniProt Q14524); assay: Inhibition of Nav1.5 (unknown origin) at 30 uM
[22] = Toxicity in rat assessed as change in physical signs at 1000 mg/kg, po administered for 7 days and measured on day 8; format: organism-based; details: in vivo, 168 h

Nav1.5, sequence (Q14524 whole entry): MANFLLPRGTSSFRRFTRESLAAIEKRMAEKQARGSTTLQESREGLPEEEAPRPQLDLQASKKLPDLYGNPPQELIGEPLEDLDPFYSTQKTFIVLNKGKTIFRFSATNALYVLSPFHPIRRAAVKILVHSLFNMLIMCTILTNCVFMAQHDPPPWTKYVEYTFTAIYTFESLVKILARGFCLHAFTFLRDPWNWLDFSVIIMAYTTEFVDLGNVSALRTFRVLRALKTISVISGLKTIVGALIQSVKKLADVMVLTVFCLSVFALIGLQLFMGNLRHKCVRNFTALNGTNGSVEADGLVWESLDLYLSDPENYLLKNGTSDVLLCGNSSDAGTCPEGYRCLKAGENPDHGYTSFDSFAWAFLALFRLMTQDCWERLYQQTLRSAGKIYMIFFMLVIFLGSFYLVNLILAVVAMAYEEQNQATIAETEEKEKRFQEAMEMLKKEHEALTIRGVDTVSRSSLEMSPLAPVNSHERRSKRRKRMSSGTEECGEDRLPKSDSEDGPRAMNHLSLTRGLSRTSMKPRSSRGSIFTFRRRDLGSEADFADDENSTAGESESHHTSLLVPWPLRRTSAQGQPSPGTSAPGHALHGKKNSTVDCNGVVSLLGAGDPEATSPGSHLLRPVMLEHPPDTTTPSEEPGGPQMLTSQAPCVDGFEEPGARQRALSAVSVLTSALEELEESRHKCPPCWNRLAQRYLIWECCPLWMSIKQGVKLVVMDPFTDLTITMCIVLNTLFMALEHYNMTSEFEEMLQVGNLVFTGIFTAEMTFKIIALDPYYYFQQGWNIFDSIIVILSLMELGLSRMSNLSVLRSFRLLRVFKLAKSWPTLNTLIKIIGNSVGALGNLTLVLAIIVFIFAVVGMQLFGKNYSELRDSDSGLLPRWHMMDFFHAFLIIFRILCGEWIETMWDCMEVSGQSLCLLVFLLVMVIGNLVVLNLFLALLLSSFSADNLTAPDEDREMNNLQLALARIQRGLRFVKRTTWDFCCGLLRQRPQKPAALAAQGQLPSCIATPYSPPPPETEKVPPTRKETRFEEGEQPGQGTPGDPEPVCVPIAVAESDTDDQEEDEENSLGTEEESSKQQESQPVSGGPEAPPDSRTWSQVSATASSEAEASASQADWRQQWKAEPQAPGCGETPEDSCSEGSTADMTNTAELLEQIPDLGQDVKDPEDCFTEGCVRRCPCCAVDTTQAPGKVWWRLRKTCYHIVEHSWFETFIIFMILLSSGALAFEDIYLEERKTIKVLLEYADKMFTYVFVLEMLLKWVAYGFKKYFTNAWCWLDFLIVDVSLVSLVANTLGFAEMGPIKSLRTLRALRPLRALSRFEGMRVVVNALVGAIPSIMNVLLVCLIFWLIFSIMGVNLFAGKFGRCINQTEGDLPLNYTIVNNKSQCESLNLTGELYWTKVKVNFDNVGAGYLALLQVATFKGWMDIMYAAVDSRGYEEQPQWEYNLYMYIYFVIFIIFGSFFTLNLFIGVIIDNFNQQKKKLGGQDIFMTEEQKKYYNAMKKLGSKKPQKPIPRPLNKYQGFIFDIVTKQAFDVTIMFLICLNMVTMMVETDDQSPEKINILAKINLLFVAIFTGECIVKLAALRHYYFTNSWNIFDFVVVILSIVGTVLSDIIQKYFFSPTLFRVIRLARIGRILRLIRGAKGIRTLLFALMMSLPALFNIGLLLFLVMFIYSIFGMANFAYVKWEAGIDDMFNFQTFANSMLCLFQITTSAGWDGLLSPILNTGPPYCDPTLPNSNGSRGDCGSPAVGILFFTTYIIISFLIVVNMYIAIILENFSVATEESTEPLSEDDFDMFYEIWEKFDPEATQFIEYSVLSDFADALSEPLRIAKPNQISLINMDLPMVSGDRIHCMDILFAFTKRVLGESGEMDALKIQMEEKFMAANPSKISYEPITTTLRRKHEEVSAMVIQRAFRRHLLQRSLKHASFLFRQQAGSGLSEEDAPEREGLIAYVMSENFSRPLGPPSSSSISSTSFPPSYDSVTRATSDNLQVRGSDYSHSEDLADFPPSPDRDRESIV
Cav1.2, sequence (Q13936 whole entry): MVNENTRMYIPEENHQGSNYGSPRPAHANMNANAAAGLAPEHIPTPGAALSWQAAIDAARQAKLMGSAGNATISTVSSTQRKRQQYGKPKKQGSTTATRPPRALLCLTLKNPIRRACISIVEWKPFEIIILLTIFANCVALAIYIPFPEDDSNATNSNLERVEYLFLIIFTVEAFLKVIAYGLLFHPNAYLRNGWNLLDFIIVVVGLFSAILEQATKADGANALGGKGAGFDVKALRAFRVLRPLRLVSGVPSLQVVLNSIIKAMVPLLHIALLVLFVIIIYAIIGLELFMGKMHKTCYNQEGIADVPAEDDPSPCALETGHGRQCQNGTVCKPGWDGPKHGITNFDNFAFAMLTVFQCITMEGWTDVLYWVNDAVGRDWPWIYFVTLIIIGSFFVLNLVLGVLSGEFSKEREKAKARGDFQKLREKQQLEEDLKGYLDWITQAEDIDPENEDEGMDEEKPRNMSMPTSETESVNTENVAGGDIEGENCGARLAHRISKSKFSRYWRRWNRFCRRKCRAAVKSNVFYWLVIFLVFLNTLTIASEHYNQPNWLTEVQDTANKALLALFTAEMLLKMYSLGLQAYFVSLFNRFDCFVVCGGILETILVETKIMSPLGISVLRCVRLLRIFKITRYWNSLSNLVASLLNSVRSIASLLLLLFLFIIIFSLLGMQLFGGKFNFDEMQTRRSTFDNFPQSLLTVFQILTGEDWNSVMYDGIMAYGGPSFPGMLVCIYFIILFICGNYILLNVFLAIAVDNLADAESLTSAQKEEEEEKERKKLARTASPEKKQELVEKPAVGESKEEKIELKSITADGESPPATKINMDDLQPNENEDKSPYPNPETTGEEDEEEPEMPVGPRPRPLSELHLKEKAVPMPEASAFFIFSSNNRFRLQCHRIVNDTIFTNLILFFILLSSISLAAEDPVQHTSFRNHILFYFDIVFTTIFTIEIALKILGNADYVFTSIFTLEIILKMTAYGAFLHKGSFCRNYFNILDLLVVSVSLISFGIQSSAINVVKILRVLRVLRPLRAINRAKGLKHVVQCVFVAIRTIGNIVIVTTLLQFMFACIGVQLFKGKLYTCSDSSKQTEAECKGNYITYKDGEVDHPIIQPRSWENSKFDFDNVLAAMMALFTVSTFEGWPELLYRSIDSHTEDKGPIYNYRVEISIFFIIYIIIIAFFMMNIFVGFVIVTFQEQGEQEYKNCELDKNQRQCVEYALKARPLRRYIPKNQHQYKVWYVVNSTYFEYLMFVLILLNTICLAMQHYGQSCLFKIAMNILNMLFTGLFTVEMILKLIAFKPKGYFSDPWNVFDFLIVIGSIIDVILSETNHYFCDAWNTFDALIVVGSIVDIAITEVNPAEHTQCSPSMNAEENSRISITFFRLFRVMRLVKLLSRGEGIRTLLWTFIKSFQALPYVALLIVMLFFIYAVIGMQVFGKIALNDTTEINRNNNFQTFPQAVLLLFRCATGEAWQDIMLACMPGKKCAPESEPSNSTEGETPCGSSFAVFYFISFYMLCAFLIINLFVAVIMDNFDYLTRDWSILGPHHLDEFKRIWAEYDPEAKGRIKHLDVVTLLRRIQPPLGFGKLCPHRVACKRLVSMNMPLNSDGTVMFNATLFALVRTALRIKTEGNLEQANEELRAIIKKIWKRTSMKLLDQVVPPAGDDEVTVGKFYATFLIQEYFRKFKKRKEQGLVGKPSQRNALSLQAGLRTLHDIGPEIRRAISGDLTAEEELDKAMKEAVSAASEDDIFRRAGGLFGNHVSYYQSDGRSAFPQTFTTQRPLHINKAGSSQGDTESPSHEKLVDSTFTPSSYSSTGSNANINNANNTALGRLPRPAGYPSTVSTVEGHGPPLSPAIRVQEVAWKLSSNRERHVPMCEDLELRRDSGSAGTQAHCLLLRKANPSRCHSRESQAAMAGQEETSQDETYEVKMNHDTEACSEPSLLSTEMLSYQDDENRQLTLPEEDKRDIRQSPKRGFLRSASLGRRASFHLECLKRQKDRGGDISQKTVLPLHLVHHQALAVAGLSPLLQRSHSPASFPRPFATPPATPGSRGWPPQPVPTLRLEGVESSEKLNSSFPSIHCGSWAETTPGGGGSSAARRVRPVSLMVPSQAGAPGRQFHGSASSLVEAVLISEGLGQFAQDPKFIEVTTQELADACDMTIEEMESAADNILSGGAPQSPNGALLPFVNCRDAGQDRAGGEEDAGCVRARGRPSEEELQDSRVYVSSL

SMILES: CCNC1=N[C@@H]2[C@@H](O)[C@H](O)[C@@H](C(F)F)O[C@@H]2S1
- AUC/dose [1]: 1.4 µM·kg·h/mg
- Vd [2]: 3.7 L/kg
- remaining at 2 h, 10 µM [3]: 91%
- fold change (FC) (Rattus norvegicus): 2.06
- AUC at 24 h [4]: 1340 µM·h
- Vd [5]: 3.1 L/kg
- half-life [6]: 1.4 h
- blood plasma ratio [7]: 0.9 to 1.1
- clearance [8]: 0.702 L/h/kg
- fraction unbound at 2.5 µM [9]: 0.97
- inhibition at 30 µM (Cav1.2): < 50%
- Kp at 24 h [10]: ≥ 20.5
- fraction unbound [11]: > 0.95
- fraction unbound [12]: > 0.95
- Cmax [13]: 226 µM
- Cmax [14]: 110 µM
- AUC/dose [15]: 14.2 µM·kg·h/mg
- fraction unbound at 1 µM [16]: > 0.99
- fraction unbound [17]: > 0.95
- inhibition at 30 µM (IKr (KCNH2)): < 50%
- half-life [18]: 1.9 h
- half-life [19]: 2.3 h
- AUC [20]: 9.64 nM·h/g
- Cmax [21]: 660 µM
- inhibition at 30 µM (Nav1.5): < 50%
- Activity [22]: Non-Toxic
